13 compounds from ChEMBL document CHEMBL1201862, “PubChem BioAssay data set” (2004) can be followed below.

Some test systems named below: HCC 2998; SF-539; IGROV-1; U-251; OVCAR-4; A498; OVCAR-3; SR; UO-31; M14; NCI-H460; LOX IMVI; RXF 393; HCT-116; SK-MEL-2; Malme-3M; HOP-92; UACC-257.
Common to all, as to test: growth of human tumour cells (NCI), 48 h

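Five compound concentrations were applied to cells in 96-well plates for 48 hours; endpoints were derived by simple linear interpolation of the resulting dose-response curve. The concentration for 50% growth inhibition is given as GI50.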 Active and inactive are the calls of the source. No stated cut-off is given here; in the data, active = GI50 up to about 1.1 µM and inactive = higher.

Consider `O=C1CCCC2=C1CC1=C(CCCC1=O)N2c1ccc([N+](=O)[O-])cc1`, for which the GI50 in the experiment on HCC 2998, in the experiment with SF-539, in the experiment on IGROV-1, with U-251, in the experiment with OVCAR-4 and with A498 was > 100 µM (inactive) throughout. Further, the GI50 in the experiment on OVCAR-3, in the experiment on SR, in the experiment with UO-31, in the experiment on M14, in the experiment with NCI-H460 and in the experiment with LOX IMVI was > 100 µM (inactive) in each case. The GI50 in the experiment with RXF 393 was > 100 µM (inactive).
In the case of `Cc1ccc(S(=O)(=O)OC(c2ccc(Cl)cc2Cl)C2OC(=O)c3ccccc32)cc1` (centres undefined), the GI50 with HCT-116 is 30.8 µM (inactive); in the experiment with SF-539, 73.6 µM (inactive); with SK-MEL-2, 73.6 µM (inactive); with IGROV-1 it was 97.3 µM (inactive); with U-251, 56.4 µM (inactive); in the experiment on OVCAR-4 it was 47.5 µM (inactive). Besides, the GI50 in the experiment with OVCAR-3 was 40.4 µM (inactive); in the experiment with SR it was 30.6 µM (inactive); in the experiment with UO-31, 27.4 µM (inactive); in the experiment with Malme-3M it was > 100 µM (inactive); in the experiment on M14, > 100 µM (inactive); in the experiment on NCI-H460, 35.8 µM (inactive). For the same compound, the figures for the GI50 in the experiment with LOX IMVI and in the experiment on RXF 393 were > 100 µM (inactive) and 67.1 µM (inactive), respectively.
`Cn1cccc1/C=C/c1cc(Br)c(/C=C/c2cccn2C)cc1Br`: the GI50 was 16.3 µM (inactive) in the experiment with HCT-116; 2.62 µM (inactive) with HCC 2998; 14.6 µM (inactive) in the experiment on SF-539; 11.7 µM (inactive) with HOP-92; 14.6 µM (inactive) in the experiment with SK-MEL-2; 15.8 µM (inactive) in the experiment with IGROV-1. For the same compound, the GI50 is 13 µM (inactive) in the experiment on U-251; 5.4 µM (inactive) in the experiment with OVCAR-4; 30.6 µM (inactive) in the experiment on UACC-257; 21 µM (inactive) in the experiment with A498; 16.1 µM (inactive) in the experiment on OVCAR-3; 15.2 µM (inactive) in the experiment on UO-31. Besides, the GI50 was 10.4 µM (inactive) with Malme-3M; 19 µM (inactive) with M14; 17.9 µM (inactive) in the experiment with NCI-H460; 18.3 µM (inactive) in the experiment with LOX IMVI; 12.6 µM (inactive) with RXF 393.
On to `N#CCc1c(-c2ccccc2)n(S(=O)(=O)c2ccccc2)c2ccccc12`, for which the GI50 with HCT-116 was 37.1 µM (inactive); with HCC 2998 it was > 100 µM (inactive); in the experiment with SF-539 it was > 100 µM (inactive); in the experiment with HOP-92, 8.89 µM (inactive); with SK-MEL-2, > 100 µM (inactive); with IGROV-1 it was > 100 µM (inactive). Besides, the GI50 in the experiment on U-251 was > 100 µM (inactive); with OVCAR-4 it was 37.3 µM (inactive); in the experiment on UACC-257, > 100 µM (inactive); with OVCAR-3, > 100 µM (inactive); in the experiment on SR, 12.2 µM (inactive); with UO-31, 14.8 µM (inactive). Also, the GI50 in the experiment with Malme-3M, in the experiment with M14 and with NCI-H460 was > 100 µM (inactive) throughout.
As to `Cc1cc2c(cc1C)[n+]([O-])c(C(=O)C/C(=N/OCCCc1ccccc1)C(=O)Nc1cc(Cl)ccc1Cl)c(C)[n+]2[O-]`, the GI50 in the experiment with HCT-116 was > 100 µM (inactive); with HCC 2998, > 100 µM (inactive); in the experiment with SF-539 it was > 100 µM (inactive); in the experiment with SK-MEL-2, 0.0562 µM (active); in the experiment on IGROV-1, > 100 µM (inactive); with U-251, > 100 µM (inactive). Besides, the GI50 with OVCAR-4, in the experiment with UACC-257, in the experiment with A498, in the experiment on OVCAR-3, in the experiment on Malme-3M and in the experiment with M14 was > 100 µM (inactive) throughout. For the same compound, the GI50 with NCI-H460, in the experiment on LOX IMVI and in the experiment with RXF 393 was > 100 µM (inactive) in each case.
`C/C(CC(=O)Nc1ccc(C)cc1)=N\NC(N)=S`: the GI50 with HCT-116, with HCC 2998, with SF-539, with HOP-92, in the experiment on SK-MEL-2 and in the experiment on IGROV-1 was > 100 µM (inactive) each time. In addition, the GI50 with U-251, with UACC-257, with A498, with OVCAR-3, in the experiment with UO-31 and in the experiment with Malme-3M was > 100 µM (inactive) each time. Further, the GI50 in the experiment on M14 is 66.7 µM (inactive); in the experiment with NCI-H460, > 100 µM (inactive); in the experiment on LOX IMVI it was 54.8 µM (inactive); with RXF 393 it was > 100 µM (inactive).
`CC(=O)OCCOCn1c2ccccc2c2c3c(c4c5ccccc5n(COCCOC(C)=O)c4c21)C(=O)N(Cc1ccccc1)C3=O`: the GI50 is > 100 µM (inactive) with HCT-116; > 100 µM (inactive) in the experiment with HCC 2998; > 100 µM (inactive) with SF-539; 55.5 µM (inactive) in the experiment on HOP-92; > 100 µM (inactive) in the experiment on SK-MEL-2; > 100 µM (inactive) in the experiment with IGROV-1. The GI50 in the experiment on U-251, in the experiment on OVCAR-4, with UACC-257, with A498, in the experiment with UO-31 and with Malme-3M was > 100 µM (inactive) throughout. The GI50 in the experiment on M14, in the experiment with NCI-H460, with LOX IMVI and with RXF 393 was > 100 µM (inactive) throughout.
Turning to `CCc1ccccc1NC(=O)C(=O)C(C#N)c1c(Cl)cccc1Cl` (centres undefined), the GI50 with HCT-116, in the experiment with SF-539, with HOP-92, in the experiment on SK-MEL-2, in the experiment on IGROV-1 and in the experiment with U-251 was > 100 µM (inactive) throughout. Also, the GI50 with UACC-257, in the experiment with OVCAR-3, in the experiment with SR, in the experiment on UO-31, in the experiment with Malme-3M and in the experiment on M14 was > 100 µM (inactive) throughout. Besides, the GI50 in the experiment with LOX IMVI is > 100 µM (inactive).
As for `COc1ccc2c(c1OC)C(C=C(c1ccccc1)c1ccccc1)CN(C)C2` (centres undefined), the GI50 in the experiment on HCT-116 is 8.39 µM (inactive); in the experiment on HCC 2998, 24.9 µM (inactive); in the experiment with SF-539, 21.9 µM (inactive); with HOP-92 it was 14.2 µM (inactive); in the experiment on IGROV-1, 14.8 µM (inactive); in the experiment with U-251, 20 µM (inactive). For the same compound, the GI50 with OVCAR-4 was 41.4 µM (inactive); in the experiment with UACC-257 it was 21.8 µM (inactive); with A498 it was 17 µM (inactive); in the experiment on OVCAR-3 it was 12.8 µM (inactive); with UO-31, 20 µM (inactive); in the experiment on Malme-3M, 20.2 µM (inactive). Besides, the GI50 is 14.5 µM (inactive) in the experiment with M14 and 11.7 µM (inactive) in the experiment with NCI-H460.
Turning to `O=C1CC(c2c(-c3ccccc3)[nH]c3ccccc23)C(=O)N1c1ccccc1` (centres undefined), the GI50 in the experiment on HCT-116 is 41.9 µM (inactive); in the experiment on HCC 2998, > 100 µM (inactive); in the experiment on SF-539, > 100 µM (inactive); with SK-MEL-2 it was > 100 µM (inactive); in the experiment on IGROV-1, > 100 µM (inactive); in the experiment with U-251 it was 88.9 µM (inactive). Also, the GI50 in the experiment on OVCAR-4 was 68.9 µM (inactive); in the experiment on UACC-257 it was > 100 µM (inactive); with A498 it was > 100 µM (inactive); in the experiment with OVCAR-3, 61.5 µM (inactive); in the experiment with UO-31, 25.4 µM (inactive); with Malme-3M, > 100 µM (inactive). Moreover, the GI50 in the experiment on M14 is > 100 µM (inactive); with NCI-H460, 56.2 µM (inactive); in the experiment with RXF 393, 27.4 µM (inactive).
As for `CCOC(=O)/C(C#N)=C(O)/C(=C/c1ccccc1Cl)NC(=O)c1ccccc1`, the GI50 with HCT-116 was 30.3 µM (inactive); with HCC 2998 it was > 100 µM (inactive); in the experiment with SF-539, > 100 µM (inactive); with HOP-92, > 100 µM (inactive); in the experiment on IGROV-1, > 100 µM (inactive); in the experiment with U-251, > 100 µM (inactive). Further, the GI50 in the experiment with OVCAR-4, in the experiment on UACC-257, in the experiment on A498, in the experiment on OVCAR-3, in the experiment on UO-31 and in the experiment with Malme-3M was > 100 µM (inactive) in each case. The GI50 in the experiment on M14 and in the experiment with NCI-H460 was > 100 µM (inactive) each time.
On to `Cc1ccc(SSCCCCS(=O)O)cc1`, for which the GI50 in the experiment with HCT-116 was 20.7 µM (inactive); in the experiment with HCC 2998, 25.1 µM (inactive); in the experiment on SF-539, 15 µM (inactive); in the experiment on SK-MEL-2 it was 25.1 µM (inactive); in the experiment with IGROV-1, 2.91 µM (inactive); in the experiment on U-251, 10.6 µM (inactive). Also, the GI50 with OVCAR-4 is 15.8 µM (inactive); in the experiment on UACC-257, 18.5 µM (inactive); in the experiment on A498, 19.1 µM (inactive); in the experiment on OVCAR-3, 17.8 µM (inactive); in the experiment on UO-31, 10.6 µM (inactive); in the experiment with Malme-3M, 19.2 µM (inactive). Also, the GI50 was 16.4 µM (inactive) in the experiment on M14, 32.5 µM (inactive) in the experiment on NCI-H460, 9.79 µM (inactive) in the experiment on LOX IMVI and 12.7 µM (inactive) in the experiment on RXF 393.
For `COc1ccc(S(=O)(=O)Nc2ccccc2C(=O)O)cc1`, the GI50 with HCC 2998 was > 100 µM (inactive); with SF-539 it was > 100 µM (inactive); in the experiment on HOP-92, 55.8 µM (inactive); in the experiment on SK-MEL-2, > 100 µM (inactive); in the experiment with IGROV-1 it was > 100 µM (inactive); in the experiment with U-251 it was > 100 µM (inactive). For the same compound, the GI50 in the experiment on OVCAR-4, in the experiment on UACC-257, in the experiment on A498, in the experiment with OVCAR-3, in the experiment on UO-31 and in the experiment with Malme-3M was > 100 µM (inactive) each time. Further, the GI50 in the experiment with M14, in the experiment with NCI-H460, in the experiment with LOX IMVI and in the experiment on RXF 393 was > 100 µM (inactive) in each case.
